Measured values taken from publication PMC10058949, “Effect of N-Terminal Peptide Modifications on In Vitro and In Vivo Properties of ^177Lu-Labeled Peptide Analogs Targeting CCK2R” (Pharmaceutics, 2023).

How the values were obtained:
[1] = Octanol/PBS distribution coefficient (logD7.4); assay type: physicochemical; settings: pH 7.4
Description: The stability studies with the ^177Lu-labeled peptide analogs were carried out at a concentration of 0.5 nmol peptide/mL in fresh human serum (n = 2) for up to 24 h. A mixture of 0.05 nmol/mL of the radiolabeled peptides in PBS and octanol (1/1, v/v) was used to evaluate the octanol/PBS distribution coefficient (logD7.4; n = 8). To determine the protein binding in human serum by Sephadex G-50 size-exclusion chromatography (GE Healthcare Illustra, Little Chalfont, UK), a 25 µL serum sample was used for different time points after incubation. All steps were performed according to previously published protocols.

[2] = design: species or system human
Text: Based on these preliminary studies, [^177Lu]Lu-2 was selected for further biodistribution studies evaluating the tumor uptake and tissue distribution for up to 7 days after injection. This study was approved by the Nijmegen Medical Center animal ethics committee (RUDEC) and the Dutch animal ethics committee (CCD) of the Radboud University (2020–0007-020). Female BALB/c nude mice were inoculated with A431-CCK2R cells at an age of 8–10 weeks (n = 20). When tumor xenografts were formed, mice were injected intravenously via a lateral tail vein with ~1 MBq of [^177Lu]Lu-2, corresponding to 20 pmol of peptide, in a total volume of 200 µL in PBS/0.5% BSA. For quantification, a 1% standard was used. […] All collected samples were weighed and measured in the γ-counter together with the standard. Results were expressed as percentage of injected activity per gram of tissue (%IA/g), and tumor-to-organ activity ratios were calculated for selected tissues. For dose-limiting organs, kidneys and stomach, dosimetry estimates were calculated using Olinda-EXM (version 2.2, Vanderbilt University) and standard weights for humans (male and female). For this purpose, the % IA/g determined in mice was extrapolated to humans using the following equation: % IA per organ in humans=[%IA/gin mice×mass of mice (kg)]×(mass of human organ (g)/total body mass of human (kg)) […]

[3] = Biodistribution 4 h p.i. in A431-CCK2R/A431-mock xenografted BALB/c nude mice; assay type: in vivo; settings: female, BALB/c nude, mouse, in vivo, iv, 20 pmol, total radioactivity
Description: (§1) Then, after 7–11 days, when visible tumor xenografts were formed, groups of 5 mice were injected intravenously via a lateral tail vein with ~0.5 MBq of radiolabeled peptide, corresponding to 20 pmol of peptide, in a total volume of ~150 µL in PBS/0.5% BSA. Using an additional mouse per group, a blocking study was performed by co-injecting a 1000-fold molar excess of the respective peptide analog (20 nmol) together with the radiolabeled peptide. For quantification, a 1:1, 1:10 and 1:50 standard was prepared using aliquots of the injection solution mixed with PBS/0.5% BSA. Mice were euthanized by cervical dislocation 4 h after injection. Subsequently, a blood sample was collected, and different tissues were dissected. All samples, as well as the rest of the body were weighed, and the activity measured in the γ-counter together with the standard. Results were expressed as percentage of injected activity per gram of tissue (%IA/g).

[4] = system: A431-CCK2R/A431-mock xenografted BALB/c nude mice; assay: as above; assay type: in vivo; settings: mouse, in vivo
Description: as §1

[5] = system: A431-CCK2R xenografted BALB/c nude mice; assay: in vivo; settings: mouse
Text: (§2) Based on these preliminary studies, [^177Lu]Lu-2 was selected for further biodistribution studies evaluating the tumor uptake and tissue distribution for up to 7 days after injection. This study was approved by the Nijmegen Medical Center animal ethics committee (RUDEC) and the Dutch animal ethics committee (CCD) of the Radboud University (2020–0007-020). Female BALB/c nude mice were inoculated with A431-CCK2R cells at an age of 8–10 weeks (n = 20). When tumor xenografts were formed, mice were injected intravenously via a lateral tail vein with ~1 MBq of [^177Lu]Lu-2, corresponding to 20 pmol of peptide, in a total volume of 200 µL in PBS/0.5% BSA. For quantification, a 1% standard was used. At different time points of 1 h, 24 h, 3 days, and 7 days after injecton, animals were euthanized by CO2/O2-asphyxiation and a blood sample was immediately drawn, and tissues of interest (spleen, pancreas, stomach, intestine, kidneys, liver, heart, lung, muscle, femur, A431-CCK2R tumor, and A431-mock tumor) were dissected. All collected samples were weighed and measured in the γ-counter together with the standard. Results were expressed as percentage of injected activity per gram of tissue (%IA/g), and tumor-to-organ activity ratios were calculated for selected tissues. For dose-limiting organs, kidneys and stomach, dosimetry estimates were calculated using Olinda-EXM (version 2.2, Vanderbilt University) and standard weights for humans (male and female). For this purpose, the % IA/g determined in mice was extrapolated to humans using the following equation: % IA per organ in humans=[%IA/gin mice×mass of mice (kg)]×(mass of human organ (g)/total body mass of human (kg))

in vivo = assay: in vivo; design: species or system mice; settings: female, BALB/c nude, mouse, iv, 20 pmol, total radioactivity
Text: as §2

[6] = uptake in A431-CCK2R xenografts
[7] = female, BALB/c nude, iv, 20 pmol, 72 h

For `CCCC[C@@H](C(=O)N[C@@H](CC(=O)O)C(=O)N[C@@H](Cc1cccc2ccccc12)C(N)=O)N(C)C(=O)[C@H](Cc1c[nH]c2ccccc12)NC(=O)CCNC(=O)CC(O)CNC(=O)CC(O)CNC(=O)CN1CCN(CC(=O)O)CCN(CC(=O)O)CCN(CC(=O)O)CC1` (stereo partly drawn) [[^177Lu]Lu-2, metal not drawn], the logD [1] was -2.18 ± 0.38, the “cumulative absorbed radiation dose, kidneys” value [2] was less than 5 Gy and the “cumulative absorbed radiation dose, stomach” value [2] was less than 10 Gy. For the same compound, the tissue to tissue ratio at 4 h [3] was 17, the tissue uptake at 4 h [3, 6] was 32.1 ± 4.05 %ID/g and the tissue uptake at 4 h ([3]; uptake in A431-mock xenografts) was 0.22 ± 0.06 %ID/g. For the same compound, the tissue uptake at 4 h ([3]; uptake in blood) was 0.03 ± 0.01 %ID/g, the tissue uptake at 4 h ([3]; uptake in femur) was 0.22 ± 0.15 %ID/g and the tissue uptake at 4 h ([3]; uptake in heart) was 0.07 ± 0.02 %ID/g. It also gave a tissue uptake at 4 h ([3]; uptake in intestine) of 0.6 ± 0.12 %ID/g, a tissue uptake at 4 h ([3]; uptake in kidneys) of 1.96 ± 0.29 %ID/g and a tissue uptake at 4 h ([3]; uptake in liver) of 1.43 ± 0.18 %ID/g. It also gave a tissue uptake at 4 h ([3]; uptake in lung) of 0.22 ± 0.06 %ID/g, a tissue uptake at 4 h ([3]; uptake in muscle) of 0.06 ± 0.03 %ID/g and a tissue uptake at 4 h ([3]; uptake in pancreas) of 0.72 ± 0.14 %ID/g. For the same compound, the tissue uptake at 4 h ([3]; uptake in spleen) was 0.96 ± 0.3 %ID/g, the tissue uptake at 4 h ([3]; uptake in stomach) was 4.3 ± 0.95 %ID/g and the “improvement in tumor-to-kidney ratio versus [177Lu]Lu-DOTA-MGS5” value [4] was “more than 2 fold”. The “uptake in A431-CCK2R xenografts” value ([5]; female, BALB/c nude, iv, 20 pmol, 1 h) was ~ 56 % IA/g, the Tumor-to-kidney ratio [5, 7] was 17.3 and the Tumor-to-stomach ratio [5, 7] was 5.5. For the same compound, the “uptake in A431-CCK2R xenografts” value [5, 7] was ~ 13 % IA/g, the uptake in kidneys [5, 7] was “below 1 % IA/g” and the “decrease of kidney uptake after 24 h versus 1 h p.i.” value [5] was ~ 54%. For the same compound, the “drop of uptake in A431-CCK2R xenografts after 24 h versus 1 h p.i.” value [5] was ~ 40%, the “improvement in tumor uptake in comparison with [177Lu]Lu-PP-F11N” value [5] was 4 fold and the “reduction of stomach uptake at 24 h p.i. versus 1 h p.i.” value [5] was ~ 33%. It also gave a tissue to tissue ratio at 1 h (in vivo; Tumor-to-blood ratio) of 38.9, a tissue to tissue ratio at 24 h (in vivo; Tumor-to-blood ratio) of 3240 and a tissue to tissue ratio at 72 h (in vivo; Tumor-to-blood ratio) of 4860. It also gave a tissue to tissue ratio at 168 h (in vivo; Tumor-to-blood ratio) of 241, a tissue to tissue ratio at 1 h (in vivo; Tumor-to-kidney ratio) of 19.8 and a tissue to tissue ratio at 24 h (in vivo; Tumor-to-kidney ratio) of 25.5. The tissue to tissue ratio at 72 h (in vivo; Tumor-to-kidney ratio) was roughly 17, the tissue to tissue ratio at 168 h (in vivo; Tumor-to-kidney ratio) was 4 and the tissue to tissue ratio at 1 h (in vivo; Tumor-to-stomach ratio) was 10.4. The tissue to tissue ratio at 24 h (in vivo; Tumor-to-stomach ratio) was 9.2, the tissue to tissue ratio at 72 h (in vivo; Tumor-to-stomach ratio) was roughly 6 and the tissue to tissue ratio at 168 h (in vivo; Tumor-to-stomach ratio) was 1.4. The tissue uptake at 1 h (in vivo; [6]) was 56.3 ± 9.14 %ID/g, the tissue uptake at 24 h (in vivo; [6]) was 33.6 ± 2.95 %ID/g and the tissue uptake at 72 h (in vivo; [6]) was 12.5 ± 0.96 %ID/g. It also gave a tissue uptake at 168 h (in vivo; [6]) of 1.23 ± 0.53 %ID/g, a tissue uptake at 1 h (in vivo; uptake in blood) of 1.45 ± 0.3 %ID/g and a tissue uptake at 168 h (in vivo; uptake in blood) of 0.01 %ID/g. It also gave a tissue uptake at 1 h (in vivo; uptake in femur) of 0.23 ± 0.05 %ID/g, a tissue uptake at 24 h (in vivo; uptake in femur) of 0.05 ± 0.01 %ID/g and a tissue uptake at 72 h (in vivo; uptake in femur) of 0.03 ± 0.01 %ID/g. For the same compound, the tissue uptake at 168 h (in vivo; uptake in femur) was 0.04 ± 0.02 %ID/g, the tissue uptake at 1 h (in vivo; uptake in heart) was 0.62 ± 0.12 %ID/g and the tissue uptake at 24 h (in vivo; uptake in heart) was 0.05 ± 0.01 %ID/g. For the same compound, the tissue uptake at 72 h (in vivo; uptake in heart) was 0.02 %ID/g, the tissue uptake at 168 h (in vivo; uptake in heart) was 0.02 %ID/g and the tissue uptake at 1 h (in vivo; uptake in intestine) was 1 ± 0.34 %ID/g. For the same compound, the tissue uptake at 24 h (in vivo; uptake in intestine) was 0.16 ± 0.02 %ID/g, the tissue uptake at 72 h (in vivo; uptake in intestine) was 0.08 %ID/g and the tissue uptake at 168 h (in vivo; uptake in intestine) was 0.03 %ID/g. The tissue uptake at 1 h (in vivo; uptake in kidneys) was 2.84 ± 0.42 %ID/g, the tissue uptake at 24 h (in vivo; uptake in kidneys) was 1.32 ± 0.23 %ID/g and the tissue uptake at 72 h (in vivo; uptake in kidneys) was 0.72 ± 0.1 %ID/g. The tissue uptake at 1 h (in vivo; uptake in liver) was 0.95 ± 0.12 %ID/g, the tissue uptake at 24 h (in vivo; uptake in liver) was 0.38 ± 0.08 %ID/g and the tissue uptake at 72 h (in vivo; uptake in liver) was 0.18 ± 0.01 %ID/g. For the same compound, the tissue uptake at 168 h (in vivo; uptake in liver) was 0.06 ± 0.01 %ID/g, the tissue uptake at 1 h (in vivo; uptake in lung) was 4.33 ± 0.87 %ID/g and the tissue uptake at 24 h (in vivo; uptake in lung) was 0.09 ± 0.02 %ID/g. It also gave a tissue uptake at 72 h (in vivo; uptake in lung) of 0.06 ± 0.01 %ID/g, a tissue uptake at 168 h (in vivo; uptake in lung) of 0.02 ± 0.01 %ID/g and a tissue uptake at 1 h (in vivo; uptake in muscle) of 0.22 ± 0.05 %ID/g. For the same compound, the tissue uptake at 24 h (in vivo; uptake in muscle) was 0.03 %ID/g, the tissue uptake at 72 h (in vivo; uptake in muscle) was 0.01 %ID/g and the tissue uptake at 168 h (in vivo; uptake in muscle) was 0.01 ± 0.01 %ID/g. For the same compound, the tissue uptake at 1 h (in vivo; uptake in pancreas) was 0.85 ± 0.14 %ID/g, the tissue uptake at 24 h (in vivo; uptake in pancreas) was 0.41 ± 0.08 %ID/g and the tissue uptake at 72 h (in vivo; uptake in pancreas) was 0.28 ± 0.04 %ID/g. The tissue uptake at 168 h (in vivo; uptake in pancreas) was 0.16 ± 0.04 %ID/g, the tissue uptake at 1 h (in vivo; uptake in spleen) was 0.54 ± 0.08 %ID/g and the tissue uptake at 24 h (in vivo; uptake in spleen) was 0.19 ± 0.03 %ID/g. The tissue uptake at 72 h (in vivo; uptake in spleen) was 0.13 ± 0.02 %ID/g, the tissue uptake at 168 h (in vivo; uptake in spleen) was 0.09 ± 0.04 %ID/g and the tissue uptake at 1 h (in vivo; uptake in stomach) was 5.43 ± 1.05 %ID/g. The tissue uptake at 24 h (in vivo; uptake in stomach) was 3.66 ± 0.38 %ID/g, the tissue uptake at 72 h (in vivo; uptake in stomach) was 2.28 ± 0.33 %ID/g and the tissue uptake at 168 h (in vivo; uptake in stomach) was 0.88 ± 0.12 %ID/g.
